# Source: patent publication US9730940B2, “Purine inhibitors of human phosphatidylinositol 3-kinase delta” (priority 2012, dated 2017)
# Target: PI3K-alpha (Homo sapiens (Human), UniProt P42336)
# Experiment: HTRF PI3K biochemical assay, alpha isoform
# Details: ratio PI3K-alpha IC50 value/PI3K-delta IC50 value
# Sequence of PI3K-alpha (P42336 whole entry, looked up, canonical isoform): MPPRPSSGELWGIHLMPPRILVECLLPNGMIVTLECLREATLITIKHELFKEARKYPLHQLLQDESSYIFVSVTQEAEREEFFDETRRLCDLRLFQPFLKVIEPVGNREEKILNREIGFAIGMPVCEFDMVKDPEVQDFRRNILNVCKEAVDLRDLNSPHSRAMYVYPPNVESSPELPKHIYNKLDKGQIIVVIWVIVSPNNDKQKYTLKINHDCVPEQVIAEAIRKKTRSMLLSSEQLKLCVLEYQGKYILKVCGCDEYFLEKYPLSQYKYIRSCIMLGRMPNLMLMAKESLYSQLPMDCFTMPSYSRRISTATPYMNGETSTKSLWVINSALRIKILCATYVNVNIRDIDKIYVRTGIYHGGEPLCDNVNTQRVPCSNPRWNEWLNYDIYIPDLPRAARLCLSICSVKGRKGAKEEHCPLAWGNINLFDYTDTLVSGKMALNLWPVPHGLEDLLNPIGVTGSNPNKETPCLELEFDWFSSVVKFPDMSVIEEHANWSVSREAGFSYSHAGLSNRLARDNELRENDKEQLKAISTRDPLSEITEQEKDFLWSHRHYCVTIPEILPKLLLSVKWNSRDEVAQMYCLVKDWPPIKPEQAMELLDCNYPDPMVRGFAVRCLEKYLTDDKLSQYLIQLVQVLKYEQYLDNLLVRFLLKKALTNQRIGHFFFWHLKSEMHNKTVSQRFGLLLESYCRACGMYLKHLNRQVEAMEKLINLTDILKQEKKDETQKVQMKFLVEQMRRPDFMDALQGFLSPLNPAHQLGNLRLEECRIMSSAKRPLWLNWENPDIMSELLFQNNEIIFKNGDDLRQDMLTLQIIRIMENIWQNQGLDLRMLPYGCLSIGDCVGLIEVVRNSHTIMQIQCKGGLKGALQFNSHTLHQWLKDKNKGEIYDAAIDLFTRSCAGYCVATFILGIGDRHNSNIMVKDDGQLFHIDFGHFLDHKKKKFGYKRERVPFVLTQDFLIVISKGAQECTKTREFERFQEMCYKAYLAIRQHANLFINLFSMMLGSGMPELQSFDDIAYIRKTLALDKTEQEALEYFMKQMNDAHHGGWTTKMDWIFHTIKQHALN
# Sequence of PI3K-alpha (P27986 whole entry partner, looked up, canonical isoform): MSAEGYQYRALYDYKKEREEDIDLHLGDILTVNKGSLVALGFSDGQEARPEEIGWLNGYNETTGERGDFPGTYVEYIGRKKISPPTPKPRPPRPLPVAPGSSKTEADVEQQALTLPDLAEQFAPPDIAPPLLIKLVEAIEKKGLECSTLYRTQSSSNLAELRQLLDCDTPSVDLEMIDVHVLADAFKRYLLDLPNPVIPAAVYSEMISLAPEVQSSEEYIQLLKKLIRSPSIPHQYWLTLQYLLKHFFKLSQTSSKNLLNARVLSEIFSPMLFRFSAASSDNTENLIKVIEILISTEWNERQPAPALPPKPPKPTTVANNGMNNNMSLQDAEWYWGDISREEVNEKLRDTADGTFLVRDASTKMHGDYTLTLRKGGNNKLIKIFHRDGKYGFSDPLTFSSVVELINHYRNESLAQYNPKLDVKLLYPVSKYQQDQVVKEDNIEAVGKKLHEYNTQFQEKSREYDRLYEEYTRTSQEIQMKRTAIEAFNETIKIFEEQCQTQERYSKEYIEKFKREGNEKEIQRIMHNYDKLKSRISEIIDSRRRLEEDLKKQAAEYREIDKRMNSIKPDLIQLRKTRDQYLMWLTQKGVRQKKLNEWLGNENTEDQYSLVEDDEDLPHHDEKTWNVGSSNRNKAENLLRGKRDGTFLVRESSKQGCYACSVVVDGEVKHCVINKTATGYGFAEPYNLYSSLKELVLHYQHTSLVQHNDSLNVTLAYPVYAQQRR
row,SMILES,Relative Selectivity versus PI3Kalpha
1,"CCn1ncc(-c2nc3c(O[C@H]4CCN(CC5CCCCC5)C4)ncnc3n2C)c1C [Compound 6-2, 6-{[(3S)-1-(cyclohexylmethyl)pyrrolidin-3-yl]oxy}-8-(1-ethyl-5-methyl-1H-pyrazol-4-yl)-9-methyl-9H-purine]",>10
2,"CCn1c(-c2cnc(C)nc2)nc2c(O[C@H]3CCN(C(=O)CC(C)(C)N)C3)ncnc21 [Compound 2-114, 4-[(3S)-3-{[9-ethyl-8-(2-methylpyrimidin-5-yl)-9H-purin-6-yl]oxy}pyrrolidin-1-yl]-2-methyl-4-oxobutan-2-amine]",>10
3,"CCn1c(-c2cnc(C)nc2)nc2c(O[C@H]3CCN(C(=O)C4CCC4C)C3)ncnc21 (single isomer, unassigned) [Compound 2-118, 9-ethyl-6-({(3S)-1-[([(1R,2S) or (1R,2R) or (1S,2R) or (1S,2S)]-methylcyclobutyl)carbonyl]pyrrolidin-3-yl}oxy)-8-(2-methylpyrimidin-5-yl)-9H-purine]",>10
4,"CCC(=O)N1CC[C@H](Oc2ncnc3c2nc(-c2cncc(N)c2)n3C)C1 [Compound 3-15, 5-(9-methyl-5-{[(3S)-1-propanoylpyrrolidin-3-yl]oxy}-9H-purin-8-yl)pyridin-3-amine]",>10
5,"CCn1ncc(-c2nc3c(O[C@H]4CCN(C(=O)c5nc(C)oc5C)C4)ncnc3n2C)c1C [Compound 2-28, 6-({(3S)-1-[(2,5-dimethyl-1,3-oxazol-4-yl)carbonyl]pyrrolidin-3-yl}oxy)-8-(1-ethyl-5-methyl-1H-pyrazol-4-yl)-9-methyl-9H-purine]",>10
6,"CCn1c(C(=O)NCC(F)(F)F)nc2c(O[C@H]3CCN(C(=O)N4CC(OC)C4)C3)ncnc21 [Compound 15-2, (S)-9-ethyl-6-((1-(3-methoxyazetidine-1-carbonyl)pyrrolidin-3-yl)oxy)-N-(2,2,2-trifluoroethyl)-9H-purine-8-carboxamide]",>10
7,"CCn1ncc(-c2nc3c(O[C@H]4CCN(C(=O)OC(C)C)C4)ncnc3n2C)c1C [Compound 1-38, 1-methylethyl (3S)-3-{[8-(1-ethyl-5-methyl-1H-pyrazol-4-yl)-9-methyl-9H-purin-6-yl]oxy}pyrrolidine-1-carboxylate]",>10
8,"CCn1c(-c2cnc(N(C)C)nc2)nc2c(O[C@H]3CCN(C(=O)C4CC4)C3)ncnc21 [Compound 3-45, 5-(6-{[(3S)-1-(cyclopropylcarbonyl)pyrrolidin-3-yl]oxy}-9-ethyl-9H-purin-8-yl)-N,N-dimethylpyrimidin-2-amine]",>10
9,"CCn1ncc(C(=O)N2CC[C@H](Oc3ncnc4c3nc(-c3cnn(CC)c3C)n4C)C2)c1C [Compound 2-63, 8-(1-ethyl-5-methyl-1H-pyrazol-4-yl)-6-({(3S)-1-[(1-ethyl-5-mcthyl-1H-pyrazol-4-yl)carbonyl]pyrrolidin-3-yl}oxy)-9-methyl-9H-purine]",10
10,"CCn1c(-c2ccc(C(F)(F)F)nc2)nc2c(O[C@H]3CCN(C(=O)C4CC4)C3)ncnc21 [Compound 2-145, 6-{[(3S)-1-(cyclopropylcarbonyl)pyrrolidin-3-yl]oxy}-9-ethyl-8-[6-(trifluoromethyl)pyridin-3-yl]-9H-purine]",>10
11,"CCn1c(-c2cnc(C)nc2)nc2c(O[C@H]3CCN(C(=O)N4CCCCC4)C3)ncnc21 [Compound 5-23, 9-ethyl-8-(2-methylpyrimidin-5-yl)-6-{[(3S)-1-(piperidin-1-ylcarbonyl)pyrrolidin-3-yl]oxy}-9H-purine]",>10
12,"CCn1c(-c2cnc(C)nc2)nc2c(OC3CN(C(=O)C4CC4)CC3C)ncnc21 (single isomer, unassigned) [Compound 3-65, [(3S,4R) or (3R,4S)]6-{[1-(cyclopropylcarbonyl)-4-methylpyrrolidin-3-yl]oxy}-9-ethyl-8-(2-methylpyrimidin-5-yl)-9H-purine]",>10
13,"CCn1ncc(-c2nc3c(O[C@H]4CCN(C(=O)OCC(C)C)C4)ncnc3n2C)c1C [Compound 1-4, 2-methylpropyl (3S)-3-{[8-(1-ethyl-5-methyl-1H-pyrazol-4-yl)-9-methyl-9H-purin-6-yl]oxy}pyrrolidine-1-carboxylate]",>10
14,"CCn1c(-c2cnc(C)nc2)nc2c(O[C@H]3C[C@H](NS(=O)(=O)CC)C3)ncnc21 [Compound 9-10, trans-N-(3-{[9-ethyl-8-(2-methylpyrimidin-5-yl)-9H-purin-6-yl]oxy}cyclobutyl) ethanesulfonamide]",>10
15,"CCn1c(-c2cnc(C)nc2)nc2c(O[C@H]3CCN(C(=O)N4CC(C)(OC)C4)C3)ncnc21 [Compound 5-21, 9-ethyl-6-({(3S)-1-[(3-methoxy-3-methylazetidin-1-yl)carbonyl]pyrrolidin-3-yl}oxy)-8-(2-methylpyrimidin-5-yl)-9H-purine]",>10
16,"CCC(=O)N1CC[C@H](Oc2ncnc3c2nc(C(F)F)n3CC)C1 [Compound 14-5, 8-(difluoromethyl)-9-ethyl-6-{[(3S)-1-propanoylpyrrolidin-3-yl]oxy}-9H-purine]",>10
17,"CCC(=O)N1CC[C@H](Oc2ncnc3c2nc(Oc2ccc(OC)c(F)c2)n3C)C1 [Compound 12-4, 8-(3-fluoro-4-methoxyphenoxy)-9-methyl-6-{[(3S)-1-propanoylpyrrolidin-3-yl]oxy}-9H-purine]",>10
18,"CCn1ncc(-c2nc3c(O[C@H]4CCN(C(=O)c5ccccn5)C4)ncnc3n2C)c1C [Compound 2-66, 8-(1-ethyl-5-methyl-1H-pyrazol-4-yl)-9-methyl-6-{[(3S)-1-(pyridin-2-ylcarbonyl)pyirolidin-3-yl]oxy}-9H-purine]",>10
19,"CCn1c(-c2cnc(C)nc2)nc2c(O[C@H]3CCN(C(=O)C4CCC4C)C3)ncnc21 (single isomer, unassigned) [Compound 2-119, 9-ethyl-6-({(3S)-1-[([(1R,2S) or (1R,2R) or (1S,2R) or (1S,2S)]-methy]cyclobutyl)carbonyl]pyrrolidin-3-yl}oxy)-8-(2-methylpyrimidin-5-yl)-9H-purine]",>10
20,"CCn1ncc(-c2nc3c(O[C@H]4CCN(C(=O)c5ccn(C)n5)C4)ncnc3n2C)c1C [Compound 2-37, 8-(1-ethyl-5-methyl-1H-pyrazol-4-yl)-9-methyl-6-({(3S)-1-[(1-methyl-1H-pyrazol-3-yl)carbonyl]pyrrolidin-3-yl}oxy)-9H-purine]",>10
21,"CCC(=O)N1CC[C@H](Oc2ncnc3c2nc(-c2cc(F)cc(NS(C)(=O)=O)c2)n3C)C1 [Compound 3-14, N-[3-fluoro-5-(9-methyl-6-{[(3S)-1-propanoylpyrrolidin-3-yl]oxy}-9H-purin-8-yl)phenyl]methanesulfonamide]",>10
22,"CCC(=O)N1CC[C@H](Oc2ncnc3c2nc(-c2cnc(OC)c(NS(C)(=O)=O)c2)n3C)C1 [Compound 3-38, N-[2-methoxy-5-(9-methyl-6-{[(3S)-1-propanoylpyrrolidin-3-yl]oxy}-9H-purin-8-yl)pyridin-3-yl]methanesulfonamide]",>10
23,"CCn1c(-c2cnc(C)nc2)nc2c(O[C@H]3CCN(c4ccc5cnoc5c4)C3)ncnc21 [Compound 7-25, 6-{[(3S)-1-(1,2-benzisoxazol-6-yl)pyrrolidin-3-yl]oxy}-9-ethyl-8-(2-methylpyrimidin-5-yl)-9H-purine]",>10
24,"Cn1c(-c2cn[nH]c2)nc2c(O[C@H]3CCN(C(=O)OC(C)(C)C)C3)ncnc21 [Compound 1-19, tert-butyl (3S)-3-{[9-methyl-8-(1H-pyrazol-4-yl)-9H-purin-6-yl]oxy}pyrrolidine-1-carboxylate]",>10
25,"CCn1c(-c2cnc(C)nc2)nc2c(O[C@H]3CCN(C(=O)C4CC4)[C@@H]3C)ncnc21 [Compound 2-98, 6-{[(2R,3S)-1-(cyclopropylcarbonyl)-2-methylpyrrolidin-3-yl]oxy}-9-ethyl-8-(2-methylpyrimidin-5-yl)-9H-purine]",>10
26,"CCn1c(-c2cnc(C)nc2)nc2c(O[C@H]3CCCN(c4ccccn4)C3)ncnc21 [Compound 7-27, 9-ethyl-8-(2-methylpyrimidin-5-yl)-6-{[(3S)-1-pyridin-2-ylpiperidin-3-yl]oxy}-9H-purine]",>10
27,"CCn1ncc(-c2nc3c(O[C@H]4CCN(C(=O)c5ncoc5C)C4)ncnc3n2C)c1C [Compound 2-57, 8-(1-ethyl-5-methyl-1H-pyrazol-4-yl)-9-methyl-6-({(3S)-1-[(5-methyl-1,3-oxazol-4-yl)carbonyl]pyrrolidin-3-yl}oxy)-9H-purine]",>10
28,"CCn1c(-c2cnc(C)nc2)nc2c(OC3CN(C(=O)C4CC4)CC3CF)ncnc21 (single isomer, unassigned) [Compound 3-68, cyclopropyl([(3S,4R) or (3R,4S)]-3-((9-ethyl-8-(2-methylpyrimidin-5-yl)-9H-purin-6-yl)oxy)-4-(fluoromethyl)pyrrolidin-1-yl)methanone]",>10
29,"CCn1c(-c2cnc(C)nc2)nc2c(OC3CCN(C(=O)N(C)c4ccccc4)CC3)ncnc21 [Compound 5-12, 4-{[9-ethyl-8-(2-methylpyrimidin-5-yl)-9H-purin-6-yl]oxy}-N-methyl-N-phenylpiperidine-1-carboxamide]",>10
30,"CCn1ncc(-c2nc3c(O[C@H]4CCN(C(=O)c5cn[nH]c5)C4)ncnc3n2C)c1C [Compound 2-72, 8-(1-ethyl-5-methyl-1H-pyrazol-4-yl)-9-methyl-6-{[(3S)-1-(1H-pyrazol-4-ylcarbonyl)pyrrolidin-3-yl]oxy}-9H-purine]",9
